Assays:
MEDI-524 Mab = experiment: Isothermal titration calorimetry (ITC) of F peptides with MEDI-524 Mab; assay type: binding; conditions: 25 mM His, pH 6, 10° C.
Text: Isothermal Titration calorimetry assays (ITC) have been described (see, for example, Heerklotz H et al., Biophysical Journal, May 1999). Molecular interactions are defined by stoichiometry and a few thermodynamic parameters. All binding reactions are associated with the absorption or generation of heat. Therefore calorimetry is emerging as a premier tool for the characterisation of interactions of biological macromolecules. ITC is the only method that measures equilibrium constants, enthalpy and entropy in one single experiment. If the experiment is performed at different temperatures the important parameter, the heat capacity change, can be determined. ITC has become a standard method for investigating the binding of ligands to receptor molecules. Accordingly, ligands are mixed with receptors, and the subsequent heats of incorporation (or binding) are measured.
To evaluate the binding properties of the wild-type peptide (SEQ ID NO.28) to Numax™/MEDI-524 by using the ITC technique. The MEDI-524 Mab was titrated with SEQ ID NO.28 in the basis buffer 25 mM His, pH 6 at 10° C. SEQ ID NO.28: (MW=2732.14, no W, Y, or C). A working solution of 55 μM was prepared by diluting 30 μL of a 5 mg/mL peptide solution with 970 μL, of 25 mM His, pH 6 buffer to be used for the ITC titrations. A 1.15 μM (0.1706 mg/ml) working solution of MEDI-524 was used for the experiments (MW 148400, A280=1.47). […]

MEDI-524 (Numax™) = experiment: Binding ELISA of F-peptides; conditions: peptide coated on plate
Procedure: Based in part upon the results of the MARM analysis above, F peptides were synthesized (done by AnaSpec, Inc. San Jose, Calif.). Each well of the assay plate was coated with […] of […] of a particular soluble RSV F-Peptide overnight at 2-8° C. After the plate was aspirated and washed with PBS/0.05% Tween-20 buffer, it was blocked by incubating with PBS/0.05% Tween-20/0.5% BSA buffer for one hour at ambient temperature. The plate was washed and MEDI-524 standard curve samples, test samples, MEDI-524 Reference Standard, and negative control were added to the washed plate. Following a one-hour incubation at ambient temperature, the plate was washed, and […] of a goat anti-human IgG-HRP (horseradish peroxidase) at 1:16,000 dilution was added to the plate. After washing, […] of 3,3′,5,5′-tetramethylbenzidine (TMB) substrate was then added to the plate and incubated at ambient temperature protected from light for 10 minutes. The enzymatic reaction was stopped by adding […] of 2N H2SO4, and the absorbance at 450 nm was measured using a microplate reader. […] After meeting all system suitability requirements, as well as meeting the criteria of the parallelism test, the ED50 ratio of the test sample to Reference Standard was calculated, and the results were expressed as a percentage of the Reference Standard binding activity. […]

Substance	binding strength lower compared to the SEQ ID NO.24 peptide (MEDI-524 Mab)	Binding to Numax™ compared with wild-type F protein epitope (SEQ ID NO. 1) (MEDI-524 (Numax™))
NSELLSLINDMPITNDQKKLMSNN-NH2 [SEQ ID NO.28]	~3 orders of magnitude	–
F peptide with a histidine at position 262: F peptide with a histidine at position 262; SEQ ID number not stated (SEQ ID No: 13, 25 and 26 carry it) (NSELLSLIHDMPITNDQKKLMSNN)	–	more tightly
